Molecules are shown by their SMILES.

Assay [1] has as its system MDA-MB-231. The note with it: incubation time: 72 h. In outline: (§1)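 MDA-MB-231 cells were transfected with siRNA against BRCA1 or with non-targeting control siRNA, and a day later were seeded at 4000 cells per well into 384-well plates containing compounds at 5 concentrations. Plates were kept for 72 h at 37 °C and 5% CO2, after which viability was measured by CellTiter-Blue fluorescence. Logistic dose–response fits in Dotmatics Studies gave the IC50 and the drug sensitivity score, the latter being curve area relative to a reference area and normalised by log of top response.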

Assay [2] has as its system MDA-MB-231. Description: drug sensitivity score (DSS); higher = more sensitive; extreme values may be limits of the assay. To be noted: incubation time: 72 h. In outline: as §1
Where [3] appears, read: siRNA: siControl (non-targeting).

In the case of `O=C(c1cc(Cc2n[nH]c(=O)c3ccccc23)ccc1F)N1CCN(C(=O)C2CC2)CC1` [Olaparib], the “IC50 of cell viability” value in assay [1] (siRNA: siBRCA1) and in assay [1] (setting [3]) was > 4.17 µM each time. Besides, the drug sensitivity score in assay [2] (siRNA: siBRCA1) and in assay [2] (setting [3]) was 0 each time.
For the molecule `CO[C@@H]1[C@H](N(C)C(=O)c2ccccc2)C[C@H]2O[C@]1(C)n1c3ccccc3c3c4c(c5c6ccccc6n2c5c31)C(=O)NC4` [PKC412 (Midostaurin)], the “IC50 of cell viability” value in assay [1] (siRNA: siBRCA1) was 0.517 µM; in assay [1] (setting [3]) it was 0.206 µM. Besides, the drug sensitivity score was determined as 11 in assay [2] (siRNA: siBRCA1) and 14.7 in assay [2] (setting [3]).
In the case of `CCCS(=O)(=O)Nc1ccc(F)c(C(=O)c2c[nH]c3ncc(-c4ccc(Cl)cc4)cc23)c1F` [PLX4032], the “IC50 of cell viability” value in assay [1] (siRNA: siBRCA1) and in assay [1] (setting [3]) was > 4.17 µM throughout. The drug sensitivity score in assay [2] (siRNA: siBRCA1) and in assay [2] (setting [3]) was 0 each time.
Regarding `CC(=O)O[C@H]1C(=O)[C@@]2(C)[C@H]([C@H](OC(=O)c3ccccc3)[C@]3(O)C[C@H](OC(=O)[C@H](O)[C@@H](NC(=O)c4ccccc4)c4ccccc4)C(C)=C1C3(C)C)[C@]1(OC(C)=O)CO[C@@H]1C[C@@H]2O` [Paclitaxel], the entries for the “IC50 of cell viability” value in assay [1] (siRNA: siBRCA1) and in assay [1] (setting [3]) were 0.0066 µM and 0.0112 µM, respectively. The values for the drug sensitivity score in assay [2] (siRNA: siBRCA1) and in assay [2] (setting [3]) were 29.8 and 27.2, respectively.
For `Cc1[nH]c2ccccc2c1CCNCc1ccc(/C=C/C(=O)NO)cc1` [Panobinostat], in that order: 0.0317 µM, 0.0275 µM, 28.7 and 29.6.
For `Cc1ccc(Nc2nccc(N(C)c3ccc4c(C)n(C)nc4c3)n2)cc1S(N)(=O)=O` [Pazopanib], in that order: > 4.17 µM, > 4.17 µM, 0 and 0.
For `OC[C@H]1O[C@@H](n2cnc3c2N=CNC[C@H]3O)C[C@@H]1O` [Pentostatin], in that order: > 4.17 µM, > 4.17 µM, 0 and 0.
On to `CC[C@@H]1C(=O)OC[C@@H]1Cc1cncn1C` [Pilocarpine], for which the “IC50 of cell viability” value in assay [1] (siRNA: siBRCA1) and in assay [1] (setting [3]) was > 4.17 µM throughout. Moreover, the drug sensitivity score in assay [2] (siRNA: siBRCA1) and in assay [2] (setting [3]) was 0 throughout.
For `O=C(CCBr)N1CCN(C(=O)CCBr)CC1` [Pipobroman], the “IC50 of cell viability” value in assay [1] (siRNA: siBRCA1) and in assay [1] (setting [3]) was > 4.17 µM in each case. The figures for the drug sensitivity score in assay [2] (siRNA: siBRCA1) and in assay [2] (setting [3]) were 1.55 and 0, respectively.
In the case of `c1cc(CN2CCCNCCNCCCNCC2)ccc1CN1CCCNCCNCCCNCC1` [Plerixafor], the “IC50 of cell viability” value in assay [1] (siRNA: siBRCA1) and in assay [1] (setting [3]) was 2.08 µM throughout. Moreover, the drug sensitivity score in assay [2] (siRNA: siBRCA1) and in assay [2] (setting [3]) was 0 in each case.
Consider `CO[C@H](C(=O)[C@@H](O)[C@@H](C)O)[C@@H]1Cc2cc3cc(O[C@H]4C[C@@H](O[C@@H]5C[C@@H](O)[C@H](O)[C@@H](C)O5)[C@H](O)[C@@H](C)O4)c(C)c(O)c3c(O)c2C(=O)[C@H]1O[C@H]1C[C@@H](O[C@@H]2C[C@@H](O)[C@@H](O[C@@H]3C[C@](C)(O)[C@H](O)[C@@H](C)O3)[C@@H](C)O2)[C@H](O)[C@@H](C)O1` [Plicamycin], for which the “IC50 of cell viability” value amounted to 0.0679 µM in assay [1] (siRNA: siBRCA1) and 0.056 µM in assay [1] (setting [3]). The drug sensitivity score is 23.4 in assay [2] (siRNA: siBRCA1) and 24.2 in assay [2] (setting [3]).
On to `Cc1ccc(C(=O)Nc2ccc(CN3CCN(C)CC3)c(C(F)(F)F)c2)cc1C#Cc1cnc2cccnn12` [Ponatinib], for which the “IC50 of cell viability” value in assay [1] (siRNA: siBRCA1) is 0.297 µM; in assay [1] (setting [3]) it was 0.363 µM. Besides, the values for the drug sensitivity score in assay [2] (siRNA: siBRCA1) and in assay [2] (setting [3]) were 16 and 15.4, respectively.
For `C[C@]12C=CC(=O)C=C1CC[C@@H]1[C@@H]2[C@@H](O)C[C@@]2(C)[C@H]1CC[C@]2(O)C(=O)CO` [Prednisolone], in that order: > 4.17 µM, > 4.17 µM, 0 and 0.
On the same counts, the results for `C[C@]12C=CC(=O)C=C1CC[C@@H]1[C@@H]2C(=O)C[C@@]2(C)[C@H]1CC[C@]2(O)C(=O)CO` [Prednisone] are > 4.17 µM, > 4.17 µM, 0 and 0.
For `COCC1(CO)C(=O)C2CCN1CC2` (stereo not drawn) [Prima-1 Met], in that order: > 4.17 µM, > 4.17 µM, 0 and 0.
Turning to `CNNCc1ccc(C(=O)NC(C)C)cc1` [Procarbazine], the “IC50 of cell viability” value in assay [1] (siRNA: siBRCA1) and in assay [1] (setting [3]) was > 4.17 µM throughout. Further, the drug sensitivity score in assay [2] (siRNA: siBRCA1) and in assay [2] (setting [3]) was 0 throughout.
As to `COc1cc(F)c(F)c(Nc2ccc(I)cc2F)c1NS(=O)(=O)C1(C[C@H](O)CO)CC1` [RDEA119 (Refametinib)], the “IC50 of cell viability” value in assay [1] (siRNA: siBRCA1) is 0.0922 µM; in assay [1] (setting [3]), 0.146 µM. For the same molecule, the drug sensitivity score in assay [2] (siRNA: siBRCA1) came to 14.9; in assay [2] (setting [3]) it was 12.3.
For `O=C(c1ccc(OCCN2CCCCC2)cc1)c1c(-c2ccc(O)cc2)sc2cc(O)ccc12` [Raloxifene], in that order: > 4.17 µM, > 4.17 µM, 0 and 0.
For `CO[C@H]1C[C@@H]2CC[C@@H](C)[C@@](O)(O2)C(=O)C(=O)N2CCCC[C@H]2C(=O)O[C@H]([C@H](C)C[C@@H]2CC[C@@H](O)[C@H](OC)C2)CC(=O)[C@H](C)/C=C(\C)[C@@H](O)[C@@H](OC)C(=O)[C@H](C)C[C@H](C)/C=C/C=C/C=C/1C` [Rapamycin (Sirolimus)], in that order: 0.000904 µM, < 0.000833 µM, 15.5 and 15.3.
With `CC[C@H](CO)Nc1nc(NCc2ccccc2)c2ncn(C(C)C)c2n1` [Roscovitine], the “IC50 of cell viability” value in assay [1] (siRNA: siBRCA1) and in assay [1] (setting [3]) was > 4.17 µM throughout. In addition, the results for the drug sensitivity score in assay [2] (siRNA: siBRCA1) and in assay [2] (setting [3]) were 2.37 and 0, respectively.
Take `N#CC[C@H](C1CCCC1)n1cc(-c2ncnc3[nH]ccc23)cn1` [Ruxolitinib]: the “IC50 of cell viability” value in assay [1] (siRNA: siBRCA1) and in assay [1] (setting [3]) was > 4.17 µM each time. Besides, the drug sensitivity score in assay [2] (siRNA: siBRCA1) and in assay [2] (setting [3]) was 0 in each case.
As for `N[C@@H](CSC(c1ccccc1)(c1ccccc1)c1ccccc1)C(=O)O` [S-trityl-L-cysteine], the “IC50 of cell viability” value in assay [1] (siRNA: siBRCA1) worked out at 0.929 µM; in assay [1] (setting [3]) it was 0.713 µM. In addition, the drug sensitivity score in assay [2] (siRNA: siBRCA1) was found to be 15.2; in assay [2] (setting [3]), 15.6.
Turning to `CC(C)(C)c1cnc(CSc2cnc(NC(=O)C3CCNCC3)s2)o1` [SNS-032], the “IC50 of cell viability” value in assay [1] (siRNA: siBRCA1) worked out at 0.0531 µM; in assay [1] (setting [3]) it was 0.0301 µM. For the same molecule, the results for the drug sensitivity score in assay [2] (siRNA: siBRCA1) and in assay [2] (setting [3]) were 23.9 and 27.6, respectively.
As to `CN1CCN(CCOc2cc(OC3CCOCC3)c3c(Nc4c(Cl)ccc5c4OCO5)ncnc3c2)CC1` [Saracatinib], the “IC50 of cell viability” value in assay [1] (siRNA: siBRCA1) is 0.652 µM; in assay [1] (setting [3]), 0.0905 µM. Also, the drug sensitivity score in assay [2] (siRNA: siBRCA1) stood at 6.55; in assay [2] (setting [3]) it was 10.4.
For `Cn1cnc2c(F)c(Nc3ccc(Br)cc3Cl)c(C(=O)NOCCO)cc21` [Selumetinib], in that order: 0.61 µM, 0.297 µM, 10.3 and 10.7.
As to `c1ccc2c(CCNc3ccc(Nc4ccncc4)cc3)c[nH]c2c1` [Serdemetan], the “IC50 of cell viability” value is > 4.17 µM in assay [1] (siRNA: siBRCA1) and 2.56 µM in assay [1] (setting [3]). Also, the drug sensitivity score was found to be 4.84 in assay [2] (siRNA: siBRCA1) and 6.59 in assay [2] (setting [3]).
On the same counts, the results for `CNC(=O)c1cc(Oc2ccc(NC(=O)Nc3ccc(Cl)c(C(F)(F)F)c3)cc2)ccn1` [Sorafenib] are 2.95 µM, 3.5 µM, 5.25 and 4.57.
In the case of `CN1CCN(c2nc(C3=C(c4c[nH]c5ccccc45)C(=O)NC3=O)c3ccccc3n2)CC1` [Sotrastaurin], the “IC50 of cell viability” value in assay [1] (siRNA: siBRCA1) and in assay [1] (setting [3]) was > 4.17 µM throughout. In addition, the drug sensitivity score in assay [2] (siRNA: siBRCA1) and in assay [2] (setting [3]) was 0 in each case.
Turning to `CN(N=O)C(=O)N[C@@H](C=O)[C@@H](O)[C@H](O)[C@H](O)CO` [Streptozocin], the “IC50 of cell viability” value in assay [1] (siRNA: siBRCA1) and in assay [1] (setting [3]) was > 4.17 µM each time. For the same molecule, the drug sensitivity score in assay [2] (siRNA: siBRCA1) and in assay [2] (setting [3]) was 0 in each case.
For the molecule `CCN(CC)CCNC(=O)c1c(C)[nH]c(/C=C2\C(=O)Nc3ccc(F)cc32)c1C` [Sunitinib], the “IC50 of cell viability” value is 2.77 µM in assay [1] (siRNA: siBRCA1) and 3.52 µM in assay [1] (setting [3]). The drug sensitivity score came to 5.44 in assay [2] (siRNA: siBRCA1) and 4.28 in assay [2] (setting [3]).
For `C=CC[C@@H]1/C=C(\C)C[C@H](C)C[C@H](OC)[C@H]2O[C@@](O)(C(=O)C(=O)N3CCCC[C@H]3C(=O)O[C@H](/C(C)=C/[C@@H]3CC[C@@H](O)[C@H](OC)C3)[C@H](C)[C@@H](O)CC1=O)[C@H](C)C[C@@H]2OC` [Tacrolimus], in that order: > 4.17 µM, > 4.17 µM, 0 and 0.
On to `CC/C(=C(\c1ccccc1)c1ccc(OCCN(C)C)cc1)c1ccccc1` [Tamoxifen], for which the “IC50 of cell viability” value in assay [1] (siRNA: siBRCA1) and in assay [1] (setting [3]) was > 4.17 µM throughout. Further, the drug sensitivity score in assay [2] (siRNA: siBRCA1) and in assay [2] (setting [3]) was 0 throughout.
